Tests used:
soybean = assay: Test C postemergence; assay type: in vivo, Glycine max
Method in brief: (§1)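 Seeds were sown in loam–sand blend and sprayed preemergence, while plants at 1- to 4-leaf stage (2–18 cm) in peat-based medium received postemergence sprays; test chemicals were formulated in a non-phytotoxic solvent with surfactant. After 13–15 days in a greenhouse, injury was rated visually against controls, 0 (no effect) to 100 (complete control).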

johnsongrass = assay: Test C preemergence; assay type: in vivo, Sorghum halepense; conditions: Sorghum halepense, pre-emergence
Method in brief: as §1

barnyardgrass [1] = assay: Test A postemergence; assay type: in vivo, Echinochloa crus-galli; conditions: Echinochloa crus-galli, post-emergence, 240 h, read-out: Plant response rating, Barnyardgrass
Method in brief: (§2)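 Visual 0–100 rating (100 = complete control) taken about 10 d post-treatment relative to untreated checks. Preemergence: directed soil spray on sown loam/sand pots. Postemergence: seedlings 2–10 cm, 1–2 leaf. Non-phytotoxic solvent formulation with surfactant.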

ragweed = assay: Test C postemergence; assay type: in vivo, Ambrosia elatior
Method in brief: as §1

barnyardgrass [2] = assay: Test A preemergence; assay type: in vivo, Echinochloa crus-galli
Method in brief: as §2

wheat = assay: Test A postemergence; assay type: in vivo, Triticum aestivum; conditions: Triticum aestivum, post-emergence, 240 h, read-out: Plant response rating, Wheat
Method in brief: as §2

corn = assay: Test A preemergence; assay type: in vivo, Zea mays
Method in brief: as §2

Italian ryegrass = assay: Test C preemergence; assay type: in vivo, Lolium multiflorum; conditions: Lolium multiflorum, pre-emergence
Method in brief: as §1

blackgrass = assay: Test C postemergence; assay type: in vivo, Alopecurus myosuroides; conditions: Alopecurus myosuroides, post-emergence
Method in brief: as §1

galium [3] = assay: Test C preemergence; assay type: in vivo, Galium aparine; conditions: Galium, pre-emergence
Method in brief: as §1

galium [4] = assay: Test C postemergence; assay type: in vivo, Galium aparine; conditions: Galium, post-emergence
Method in brief: as §1

morningglory = assay: Test C preemergence; assay type: in vivo, Ipomoea coccinea; conditions: Ipomoea, pre-emergence
Method in brief: as §1

lambsquarters = assay: Test C postemergence; assay type: in vivo, Chenopodium album
Method in brief: as §1

velvetleaf = assay: Test C postemergence; assay type: in vivo, Abutilon theophrasti
Method in brief: as §1

giant foxtail = assay: Test C postemergence; assay type: in vivo, Setaria faberii; conditions: Setaria faberi, post-emergence
Method in brief: as §1

[5] = 31 g ai/ha, postemergence, visual rating, scale 0 to 100 (0 no effect, 100 complete control), 13 to 15 days
[6] = 125 g ai/ha, 0 to 100 scale, 0 no effect, 100 complete control
[7] = 500 g ai/ha, 0 to 100 scale where 0 is no effect and 100 is complete control

With `N#Cc1cccc(Oc2ncc(Cl)cn2)c1-n1cc(OCC(F)(F)F)cn1` [Compound 274, 3-[(5-chloro-2-pyrimidinyl)oxy]-2-[4-(2,2,2-trifluoroethoxy)-1H-pyrazol-1-yl]benzonitrile] the “Soybean plant response rating” value (soybean; [5]) was 70, the Soybean plant response rating (crop injury, 0-100 scale) at 16 g/ha (soybean; Glycine max, post-emergence, 16 g ai/ha, postemergence, 0 is no effect, 100 is complete control) was 45% and the Soybean plant response rating (crop injury, 0-100 scale) at 125 g/ha (soybean; Glycine max, post-emergence, 125 g ai/ha, postemergence, visual rating, scale 0 to 100 (0 no effect, 100 complete control), read-out: Plant response rating, Soybean) was 98%. It also gave a Soybean plant response rating (crop injury, 0-100 scale) at 62 g/ha (soybean; Glycine max, post-emergence, Postemergence, 62 g ai/ha, scale 0 to 100 (0 no effect, 100 complete control), 13 to 15 days) of 90%, a pest or weed control at 16 g/ha (johnsongrass; 16 g ai/ha, preemergence, scale 0 to 100 (0 no effect, 100 complete control), read-out: Johnsongrass plant response rating) of 10% and a pest or weed control at 125 g/ha (johnsongrass; 125 g ai/ha, preemergence, scale 0 (no effect) to 100 (complete control), read-out: Johnsongrass plant response rating) of 98%. The pest or weed control at 62 g/ha (johnsongrass; Preemergence, 62 g ai/ha, scale 0 to 100, 0 no effect, 100 complete control, read-out: Plant response rating, Johnsongrass) was 95%, the pest or weed control at 125 g/ha (barnyardgrass [1]; [6]) was 90% and the pest or weed control at 500 g/ha (barnyardgrass [1]; [7]) was 100%. The “Ragweed plant response rating” value (ragweed; [5]) was 60, the pest or weed control at 16 g/ha (ragweed; Ambrosia artemisiifolia, post-emergence, 16 g ai/ha, postemergence, 0 is no effect, 100 is complete control, read-out: Plant response rating (0 to 100), Ragweed) was 50% and the pest or weed control at 125 g/ha (ragweed; Ambrosia artemisiifolia, post-emergence, 125 g ai/ha, postemergence, visual rating, scale 0 to 100 (0 no effect, 100 complete control), read-out: Plant response rating, Ragweed) was 75%. The pest or weed control at 62 g/ha (ragweed; Ambrosia artemisiifolia, post-emergence, Postemergence, 62 g ai/ha, scale 0 to 100 (0 no effect, 100 complete control), 13 to 15 days, read-out: Plant response rating, Ragweed) was 40%, the “Barnyardgrass plant response rating (0 to 100 scale, 0 is no effect, 100 is complete control)” value (barnyardgrass [2]; 125 g ai/ha) was 90 and the pest or weed control at 500 g/ha (barnyardgrass [2]; Echinochloa crus-galli, pre-emergence, 240 h, 500 g ai/ha, 0 to 100 scale where 0 is no effect and 100 is complete control, read-out: Barnyardgrass plant response rating) was 100%. For the same molecule, the plant injury at 125 g/ha (wheat; [6]) was 70%, the plant injury at 500 g/ha (wheat; [7]) was 80% and the “Corn plant response rating (0 to 100 scale)” value (corn; 125 g ai/ha) was 50. It also gave a plant injury at 500 g/ha (corn; Zea mays, pre-emergence, 240 h, 500 g ai/ha, 0 to 100 scale where 0 is no effect and 100 is complete control, read-out: Corn plant response rating) of 50%, a pest or weed control at 16 g/ha (Italian ryegrass; 16 g ai/ha, preemergence, scale 0 to 100 (0 no effect, 100 complete control), read-out: Ryegrass, Italian plant response rating) of 25% and a pest or weed control at 125 g/ha (Italian ryegrass; 125 g ai/ha, preemergence, scale 0 (no effect) to 100 (complete control), read-out: Ryegrass, Italian plant response rating) of 90%. It also gave a pest or weed control at 62 g/ha (Italian ryegrass; Preemergence, 62 g ai/ha, scale 0 to 100, 0 no effect, 100 complete control, read-out: Plant response rating, Ryegrass, Italian) of 90%, a pest or weed control at 16 g/ha (blackgrass; 16 g ai/ha, postemergence, 0 is no effect, 100 is complete control, read-out: Plant response rating (0 to 100), Blackgrass) of 5% and a pest or weed control at 31 g/ha (blackgrass; 31 g ai/ha, postemergence, visual rating, scale 0 to 100 (0 no effect, 100 complete control), 13 to 15 days, read-out: Blackgrass plant response rating) of 5%. For the same molecule, the pest or weed control at 125 g/ha (blackgrass; 125 g ai/ha, postemergence, visual rating, scale 0 to 100 (0 no effect, 100 complete control), read-out: Plant response rating, Blackgrass) was 20%, the pest or weed control at 62 g/ha (blackgrass; Postemergence, 62 g ai/ha, scale 0 to 100 (0 no effect, 100 complete control), 13 to 15 days, read-out: Plant response rating, Blackgrass) was 15% and the pest or weed control at 16 g/ha (galium [3]; 16 g ai/ha, preemergence, scale 0 to 100 (0 no effect, 100 complete control), read-out: Galium plant response rating) was 90%. The pest or weed control at 125 g/ha (galium [3]; 125 g ai/ha, preemergence, scale 0 (no effect) to 100 (complete control), read-out: Galium plant response rating) was 98%, the pest or weed control at 62 g/ha (galium [3]; Preemergence, 62 g ai/ha, scale 0 to 100, 0 no effect, 100 complete control, read-out: Plant response rating, Galium) was 98% and the pest or weed control at 16 g/ha (galium [4]; 16 g ai/ha, postemergence, 0 is no effect, 100 is complete control, read-out: Plant response rating (0 to 100), Galium) was 70%. It also gave a pest or weed control at 31 g/ha (galium [4]; 31 g ai/ha, postemergence, visual rating, scale 0 to 100 (0 no effect, 100 complete control), 13 to 15 days, read-out: Galium plant response rating) of 80%, a pest or weed control at 125 g/ha (galium [4]; 125 g ai/ha, postemergence, visual rating, scale 0 to 100 (0 no effect, 100 complete control), read-out: Plant response rating, Galium) of 98% and a pest or weed control at 62 g/ha (galium [4]; Postemergence, 62 g ai/ha, scale 0 to 100 (0 no effect, 100 complete control), 13 to 15 days, read-out: Plant response rating, Galium) of 90%. The pest or weed control at 16 g/ha (morningglory; 16 g ai/ha, preemergence, scale 0 to 100 (0 no effect, 100 complete control), read-out: Morningglory plant response rating) was 35%, the pest or weed control at 125 g/ha (morningglory; 125 g ai/ha, preemergence, scale 0 (no effect) to 100 (complete control), read-out: Morningglory plant response rating) was 100% and the pest or weed control at 62 g/ha (morningglory; Preemergence, 62 g ai/ha, scale 0 to 100, 0 no effect, 100 complete control, read-out: Plant response rating, Morningglory) was 100%. For the same molecule, the “Lambsquarters plant response rating” value (lambsquarters; [5]) was 95, the pest or weed control at 16 g/ha (lambsquarters; Chenopodium album, post-emergence, 16 g ai/ha, postemergence, 0 is no effect, 100 is complete control, read-out: Plant response rating (0 to 100), Lambsquarters) was 85% and the pest or weed control at 125 g/ha (lambsquarters; Chenopodium album, post-emergence, 125 g ai/ha, postemergence, visual rating, scale 0 to 100 (0 no effect, 100 complete control), read-out: Plant response rating, Lambsquarters) was 98%. The pest or weed control at 62 g/ha (lambsquarters; Chenopodium album, post-emergence, Postemergence, 62 g ai/ha, scale 0 to 100 (0 no effect, 100 complete control), 13 to 15 days, read-out: Plant response rating, Lambsquarters) was 95%, the “Velvetleaf plant response rating” value (velvetleaf; [5]) was 50 and the pest or weed control at 16 g/ha (velvetleaf; Abutilon theophrasti, post-emergence, 16 g ai/ha, postemergence, 0 is no effect, 100 is complete control, read-out: Plant response rating (0 to 100), Velvetleaf) was 30%. The pest or weed control at 125 g/ha (velvetleaf; Abutilon theophrasti, post-emergence, 125 g ai/ha, postemergence, visual rating, scale 0 to 100 (0 no effect, 100 complete control), read-out: Plant response rating, Velvetleaf) was 75%, the pest or weed control at 62 g/ha (velvetleaf; Abutilon theophrasti, post-emergence, Postemergence, 62 g ai/ha, scale 0 to 100 (0 no effect, 100 complete control), 13 to 15 days, read-out: Plant response rating, Velvetleaf) was 65% and the pest or weed control at 16 g/ha (giant foxtail; 16 g ai/ha, postemergence, 0 is no effect, 100 is complete control, read-out: Plant response rating (0 to 100), Foxtail, Giant) was 5%. For the same molecule, the pest or weed control at 31 g/ha (giant foxtail; 31 g ai/ha, postemergence, visual rating, scale 0 to 100 (0 no effect, 100 complete control), 13 to 15 days, read-out: Foxtail, Giant plant response rating) was 10%, the pest or weed control at 125 g/ha (giant foxtail; 125 g ai/ha, postemergence, visual rating, scale 0 to 100 (0 no effect, 100 complete control), read-out: Plant response rating, Foxtail, Giant) was 60% and the pest or weed control at 62 g/ha (giant foxtail; Postemergence, 62 g ai/ha, scale 0 to 100 (0 no effect, 100 complete control), 13 to 15 days, read-out: Plant response rating, Foxtail, Giant) was 10%.

— patent publication US9695155B2, “Herbicidal substituted pyrimidinyloxy benzene compounds” (E. I. DU PONT DE NEMOURS AND COMPANY, priority 2013, dated 2017)
